This is an account of results in PubChem BioAssay AID1918958 (Molecular Pharmacology Branch, DTP, NCI, 2023).

This assay deals with NCI-H196 complex spheroid viability. Briefly: Anticancer human tumor NCI-H196 cell line growth inhibition [LSD1].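 For all read-outs here: spheroids exposed to agents for 7 days before readout.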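 For viability, T/C: 100% = DMSO vehicle control viability.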 The following applies: for viability, T/C: stronger effect = lower value. Summed up: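 Complex spheroids of tumor cells with HUVEC and human MSCs, exposed to iadademstat combined with other agents. Each agent tested in half-log steps from near clinical Cmax (else 10 microM top), DMSO ≤0.25%.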

Where [1] appears, read: curve of first compound, second compound 0.1 µM.
The mark [2] stands for this setting: curve of first compound, second compound 0.316 µM.
Setting [3] is: curve of first compound, second compound 1 µM.
The mark [4] stands for this setting: curve of first compound, second compound 3.16 µM.
Setting [5] is: curve of first compound, second compound 10 µM.
Setting [6] is: second compound 0.1 µM, first compound 0.00316 µM.
Setting [7] is: second compound 0.1 µM, first compound 0.01 µM.
Setting [8] is: second compound 0.1 µM, first compound 0.0316 µM.
The mark [9] stands for this setting: second compound 0.1 µM, first compound 0.1 µM.
Where [10] appears, read: second compound 0.1 µM, first compound 0.316 µM.
The mark [11] stands for this setting: second compound 0.1 µM, first compound 1 µM.
[12] abbreviates: second compound 0.316 µM, first compound 0.00316 µM.
The mark [13] stands for this setting: second compound 0.316 µM, first compound 0.01 µM.
[14] abbreviates: second compound 0.316 µM, first compound 0.0316 µM.
[15] abbreviates: second compound 0.316 µM, first compound 0.1 µM.
Setting [16] is: second compound 0.316 µM, first compound 0.316 µM.
Setting [17] is: second compound 0.316 µM, first compound 1 µM.
[18] abbreviates: second compound 1 µM, first compound 0.00316 µM.
[19] abbreviates: second compound 1 µM, first compound 0.01 µM.
Setting [20] is: second compound 1 µM, first compound 0.0316 µM.
The mark [21] stands for this setting: second compound 1 µM, first compound 0.1 µM.
Setting [22] is: second compound 1 µM, first compound 0.316 µM.
The mark [23] stands for this setting: second compound 1 µM, first compound 1 µM.
The mark [24] stands for this setting: second compound 3.16 µM, first compound 0.00316 µM.
[25] abbreviates: second compound 3.16 µM, first compound 0.01 µM.
The mark [26] stands for this setting: second compound 3.16 µM, first compound 0.0316 µM.
The mark [27] stands for this setting: second compound 3.16 µM, first compound 0.1 µM.
Where [28] appears, read: second compound 3.16 µM, first compound 0.316 µM.
The mark [29] stands for this setting: second compound 3.16 µM, first compound 1 µM.
Setting [30] is: second compound 10 µM, first compound 0.00316 µM.
The mark [31] stands for this setting: second compound 10 µM, first compound 0.01 µM.
The mark [32] stands for this setting: second compound 10 µM, first compound 0.0316 µM.
Where [33] appears, read: second compound 10 µM, first compound 0.1 µM.
Setting [34] is: second compound 10 µM, first compound 0.316 µM.
[35] abbreviates: second compound 10 µM, first compound 1 µM.

Several values for one entry are separate records, joined by “and”; a condition that tells them apart may be missing. Equal entries are not always repeated.

Take `Nc1ncn(C2CC(O)C(CO)O2)c(=O)n1` (stereo not drawn) + NC1CC1c1ccc(-c2cccc(O)c2)cc1: the IC50 reads like this: under setting [1], over 1 µM; under setting [2], over 1 µM; under setting [3], over 1 µM; under setting [4], over 1 µM; under setting [5], over 1 µM. In addition, the viability, T/C runs as follows: under setting [6], 98.6%; under setting [7], 99.9%; under setting [8], 99.7%; under setting [9], 87.9%; under setting [10], 99.5%; under setting [11], 97.9%. The viability, T/C runs as follows: under setting [12], 97.5%; under setting [13], 95.6%; under setting [14], 98.9%; under setting [15], 89%; under setting [16], 94.2%; under setting [17], 97%. Moreover, the viability, T/C by setting is: under setting [18], 98.4%; under setting [19], 100%; under setting [20], 98.7%; under setting [21], 91.2%; under setting [22], 96.4%; under setting [23], 97.7%. Besides, the viability, T/C is 96.4% under setting [24]; 95% under setting [25]; 98.1% under setting [26]; 88.9% under setting [27]; 106% under setting [28]; 95.9% under setting [29]. Further, the viability, T/C was 105% under setting [30]; 106% under setting [31]; 96.3% under setting [32]; 98.4% under setting [33]; 95.4% under setting [34]; 95.2% under setting [35].
In the case of `O=C(C=Cn1cnc(-c2cc(C(F)(F)F)cc(C(F)(F)F)c2)n1)NNc1cnccn1`, the viability, T/C runs as follows: (compound 0.00316 µM) 28.4% and 33.1%; (compound 0.01 µM) 31% and 30.9%; (compound 0.0316 µM) 19.2% and 19.6%; (compound 0.1 µM) 17.7% and 14.5%; (compound 0.316 µM) 13.8% and 10.2%; (compound 1 µM) 7.27% and 6.31%. The IC50 (curve of compound) was under 0.00316 µM.
Consider `O=C(C=Cn1cnc(-c2cc(C(F)(F)F)cc(C(F)(F)F)c2)n1)NNc1cnccn1` + NC1CC1c1ccc(-c2cccc(O)c2)cc1, for which the IC50 reads like this: under setting [1], under 0.00316 µM; under setting [2], under 0.00316 µM; under setting [3], under 0.00316 µM; under setting [4], under 0.00316 µM; under setting [5], under 0.00316 µM. Besides, the viability, T/C was 32.5% under setting [6]; 27.1% under setting [7]; 19.8% under setting [8]; 14.6% under setting [9]; 10.4% under setting [10]; 7.16% under setting [11]. Besides, the viability, T/C runs as follows: under setting [12], 33.1%; under setting [13], 25.6%; under setting [14], 20.7%; under setting [15], 12.4%; under setting [16], 10.7%; under setting [17], 8.26%. In addition, the viability, T/C is 31.3% under setting [18]; 31.5% under setting [19]; 19.6% under setting [20]; 12.1% under setting [21]; 10.6% under setting [22]; 9.55% under setting [23]. Moreover, the viability, T/C under setting [24] was 45.6%; the viability, T/C under setting [25] is 31.5%; the viability, T/C under setting [26] was 15.9%; the viability, T/C under setting [27] was 14%; the viability, T/C under setting [28] is 10.2%; the viability, T/C under setting [29] is 10.3%. Further, the viability, T/C under setting [30] is 36.2%; the viability, T/C under setting [31] was 29.2%; the viability, T/C under setting [32] is 18.3%; the viability, T/C under setting [33] is 15.9%; the viability, T/C under setting [34] is 12.4%; the viability, T/C under setting [35] was 11.9%.
Consider `CC1(C)CCC(CN2CCN(c3ccc(C(=O)NS(=O)(=O)c4ccc(NCC5CCOCC5)c([N+](=O)[O-])c4)c(Oc4cnc5[nH]ccc5c4)c3)CC2)=C(c2ccc(Cl)cc2)C1`, for which the viability, T/C is 99.4% and 101% (compound 0.0316 µM); 104% and 99.2% (compound 0.1 µM); 94.9% and 98.7% (compound 0.316 µM); 103% and 93.7% (compound 1 µM); 86.4% and 94.3% (compound 3.16 µM); 13% and 20.1% (compound 10 µM). For the same compound, the IC50 (curve of compound) is 5.62 µM and 6.29 µM.
On to `CCN(c1cc(-c2ccc(CN3CCOCC3)cc2)cc(C(=O)NCc2c(C)cc(C)[nH]c2=O)c1C)C1CCOCC1`, for which the viability, T/C by setting is: (compound 0.00949 µM) 95.5% and 97.5%; (compound 0.03 µM) 103% and 95.3%; (compound 0.0949 µM) 92.9% and 110%; (compound 0.3 µM) 93.9% and 107%; (compound 0.949 µM) 101% and 113%; (compound 3 µM) 108% and 100%. Under “curve of compound”, the IC50 is over 3 µM.
With `Nc1ccccc1NC(=O)c1ccc(CNC(=O)OCc2cccnc2)cc1` + NC1CCC(NC2CC2c2ccccc2)CC1, the IC50 was found to be 0.0622 µM under setting [1]; 0.0593 µM under setting [2]; 0.0886 µM under setting [3]; 0.0774 µM under setting [4]; 0.0735 µM under setting [5]. Besides, the viability, T/C was 82.9% (second compound 0.1 µM, first compound 0.00949 µM); 66.6% (second compound 0.1 µM, first compound 0.03 µM); 41% (second compound 0.1 µM, first compound 0.0949 µM); 12% (second compound 0.1 µM, first compound 0.3 µM); 0.32% (second compound 0.1 µM, first compound 0.949 µM); 1.24% (second compound 0.1 µM, first compound 3 µM). Moreover, the viability, T/C runs as follows: (second compound 0.316 µM, first compound 0.00949 µM) 81.2%; (second compound 0.316 µM, first compound 0.03 µM) 69.3%; (second compound 0.316 µM, first compound 0.0949 µM) 36.4%; (second compound 0.316 µM, first compound 0.3 µM) 11.9%; (second compound 0.316 µM, first compound 0.949 µM) 0.27%; (second compound 0.316 µM, first compound 3 µM) 0.3%. Besides, the viability, T/C was 84.8% (second compound 1 µM, first compound 0.00949 µM); 73.3% (second compound 1 µM, first compound 0.03 µM); 49.9% (second compound 1 µM, first compound 0.0949 µM); 12.2% (second compound 1 µM, first compound 0.3 µM); 0.24% (second compound 1 µM, first compound 0.949 µM); 0.35% (second compound 1 µM, first compound 3 µM). Also, the viability, T/C (second compound 3.16 µM, first compound 0.00949 µM) is 85.3%; the viability, T/C (second compound 3.16 µM, first compound 0.03 µM) is 78.9%; the viability, T/C (second compound 3.16 µM, first compound 0.0949 µM) was 43.4%; the viability, T/C (second compound 3.16 µM, first compound 0.3 µM) was 10.2%; the viability, T/C (second compound 3.16 µM, first compound 0.949 µM) was 0.27%; the viability, T/C (second compound 3.16 µM, first compound 3 µM) is 0.26%. For the same compound, the viability, T/C reads like this: (second compound 10 µM, first compound 0.00949 µM) 89.7%; (second compound 10 µM, first compound 0.03 µM) 73.6%; (second compound 10 µM, first compound 0.0949 µM) 44.3%; (second compound 10 µM, first compound 0.3 µM) 12.1%; (second compound 10 µM, first compound 0.949 µM) 1.12%; (second compound 10 µM, first compound 3 µM) 0.38%.
Take `O=C(C=Cc1cccc(S(=O)(=O)Nc2ccccc2)c1)NO`: the viability, T/C is 107% and 99.7% (compound 0.00949 µM); 103% and 104% (compound 0.03 µM); 70.1% and 56.7% (compound 0.0949 µM); 22.9% and 15% (compound 0.3 µM); 0.4% (compound 0.949 µM); 0.41% and 0.39% (compound 3 µM). Also, for the setting “curve of compound”, the IC50 is 0.155 µM and 0.119 µM.

Broadly, the IC50 is the concentration that inhibits the measured activity by half. The term viability, T/C denotes the ratio of treated to control.
